Source: patent publication US9334242B2, “Compounds for treatment of cancer” (GTX, INC., priority 2010, dated 2016)
pIC50: −log10 of the molar value. Where two headings read alike, the source gives them in different places. Blank lines part the entries; values can stand above or below the compound they belong to.

Assays:
[1] = system: melanoma (B16-F1, A375, WM-164) and prostate cancer (LNCaP, PC-3, DU 145, PPC-1) cell lines; test: Cytotoxicity SRB assay, ranges or averages quoted over the melanoma and prostate cancer cell lines; type: cell-based
[2] = system: prostate cancer cells (LNCaP, DU 145, PC-3, PPC-1); test: Cytotoxicity SRB assay, values quoted for the prostate cancer cell panel; type: cell-based; conditions: Homo sapiens, read-out: IC50s against prostate cancer cells (range)
[3] = system: PC-3 prostate tumor xenograft; test: PC-3 tumor xenograft study in nude mice; type: in vivo, mouse; conditions: for mice that lost more than 15% body weight: PC-3 xenograft study; for % T/C: PC-3 xenograft
Excerpt: (§1) PC-3 and A375 tumor xenograft studies.

ICR mice = test: Rotarod test (in vivo neurotoxicity); design: species or system mouse; conditions: 1h 5 or 15 mg/kg, vinblastine 0.5 mg/kg, i.p. daily to day 31
PC-3 cells = test: Apoptosis detection by ELISA (cytoplasmic DNA-histone complexes); type: cell-based, human; conditions: 24 h
Excerpt: (§2) Apoptosis detection by ELISA. Quantification of the enrichment of mono- and oligonucleosomes in the cytoplasm was used to determine the ability of the compounds to induce apoptosis (cell death detection ELISA PLUS, Roche, Germany) following the manufacturer's instructions.

A375 cells = test: as above; type: cell-based, human; conditions: 24 h
Excerpt: as §2

Bovine brain tubulin = Bovine brain tubulin (Bos taurus, UniProt P81947+Q6B856); test: In vitro tubulin polymerization assay; type: biochemical; conditions: 10 μM
Protocol: In Vitro Tubulin Polymerization Assay.
In vitro microtubule polymerization assay. […] The spectrophotometer was maintained at 37° C. for tubulin polymerization.

A375 melanoma xenografts = test: A375 tumor xenograft study in athymic nude mice; type: in vivo, mouse; conditions: for T − C: tumor growth delay
Excerpt: as §1

[4] = Pharmacokinetic study in ICR mice; conditions: ICR mice, 15 mg/kg i.v.
PC-3 = test: Cytotoxicity / cell growth inhibition, SRB assay; conditions: Homo sapiens
[5] = Aqueous solubility, Multiscreen Solubility Filter Plate, PBS pH 7.4, LC-MS/MS; type: physicochemical; conditions: HCl salt of 2r
WM-164 melanoma cells = test: Microtubule imaging (immunofluorescence, Cellomics Cytoskeleton rearrangement kit); type: cell-based, human; conditions: WM-164 cells, 18 h
Excerpt: Primary antibody for tubulin and fluorescence-labeled secondary antibody were subsequently added to the cells. Cell nuclei were stained by DAPI. Whole Cell Stain Green was also applied to all cells. All images were acquired with an Olympus IX71 inverted fluorescence microscope (Olympus Corp., Tokyo, Japan) with overlays from separate images of tubulin (red), nuclei (blue), and whole cells (green).

B16-F1 melanoma cells = test: Melanoma colony formation assay in soft agar; type: cell-based, mouse; conditions: 14 days, tested 20, 100, 500 nM
Protocol: B16-F1 melanoma cells were plated at a colony-forming density (2000 cells per well on six-well plates) on top of 0.8% base agar. Cells were grown in 0.4% agar together with DMEM medium supplemented with fetal bovine serum and an antibiotic-antimycotic solution at 37° C. in an atmosphere of 95% air and 5% CO2. […] Compounds were added to the media from 1-mM DMSO stock solutions, and a corresponding dilution of DMSO was used as control. Cells were grown for 14 days. Plates were photographed, and the number of colonies was measured by Artek 880 Automated Colony Counter (Artek Systems Corporation, Farmingdale, N.Y.).

[6] = system: T1, tubulin colchicine binding site; test: [3H]-colchicine competition-binding scintillation proximity assay; conditions: SPA
T1 construct: […]; other: SPA

in vivo [7] = conditions: male, ICR, mouse, plasma, iv, 10 mg/kg
in vivo [8] = conditions: female, Sprague-Dawley, rat, plasma, iv, 5 mg/kg
PPC-1 = test: Cytotoxicity / cell growth inhibition, SRB assay; conditions: Homo sapiens, PPC-1, 96 h, read-out: IC50 ± SEM (nM) PPC-1, Table 12; 96 h exposure
B16-F1 melanoma tumors = test: In vivo anti-tumor activity, B16-F1 melanoma in C57/BL mice; design: species or system mouse; conditions: 60 mg/kg i.p. daily, 14 days, C57/BL mice (positive control)
[9] = quoted in the text to Table 2, read-out: IC50 (range or bound over the tested cancer cell lines)
[10] = after 20 min incubation, compared to vehicle (Example 11D)
[11] = range given, read-out: IC50 (range over the tested cancer cell lines)

Structure (SMILES): COc1cc(C(=O)c2cccc(-c3ccccc3)c2)cc(OC)c1OC [1a, Biphenyl-3-yl(3,4,5-trimethoxyphenyl)methanone]
- IC50 (range over the tested cancer cell lines) ([1]; range given): hundreds of nanomolar range

Structure (SMILES): COc1cc(C(=O)c2cccc(-c3ccccc3)n2)cc(OC)c1OC [1c, (6-Phenylpyridin-2-yl)(3,4,5-trimethoxyphenyl)methanone]
- pIC50 [2]: 7.46 to 7.92

Structure (SMILES): COc1cc(C(=O)c2csc(-c3ccccc3)n2)cc(OC)c1OC [1h, (2-Phenyl-thiazol-4-yl)-(3,4,5-trimethoxy-phenyl)-methanone]
- mice that lost more than 15% body weight ([3]; 15 mg/kg i.p.): 1 of 8
- time on the rotating rod compared to the vehicle group (ICR mice): no significant difference
- concentration inducing apoptosis (PC-3 cells): 50 nM
- concentration inducing apoptosis (A375 cells): 50 nM

Structure (SMILES): COc1cc(/C(=N/O)c2csc(-c3ccccc3)n2)cc(OC)c1OC [2e-cis, (Z)-(2-Phenylthiazol-4-yl)(3,4,5-trimethoxyphenyl)methanone oxime]
- pIC50 [1, 9]: 6.52 to 7.00

Structure (SMILES): COc1cc(/C(=N\O)c2csc(-c3ccccc3)n2)cc(OC)c1OC [2e-trans, (E)-(2-Phenylthiazol-4-yl)(3,4,5-trimethoxyphenyl)methanone oxime]
- pIC50 [1, 9]: < 5.00

Structure (SMILES): COc1cc(C(=NC#N)c2csc(-c3ccccc3)n2)cc(OC)c1OC [2j, N-((2-phenylthiazol-4-yl)(3,4,5-trimethoxyphenyl)methylene)cyanamide]
- inhibition of tubulin polymerization (Bovine brain tubulin; [10]): 64%

Structure (SMILES): COc1cc(C(=O)c2csc(-c3ccc(F)cc3)n2)cc(OC)c1OC [2k]
- % T/C, A375 (A375 melanoma xenografts; 1h 20 mg/kg, 2k 15 mg/kg, i.p.): 29%
- tumor volume, A375 (A375 melanoma xenografts; 1h 20 mg/kg, 2k 15 mg/kg, i.p., 34 days): 722 mm^3
- % T/C ([3]; 5 mg/kg i.p.): 21%
- % T/C ([3]; 15 mg/kg i.p.): 24%
- mice that lost more than 15% body weight ([3]; 15 mg/kg i.p.): 2 out of 7
- concentration inducing apoptosis (PC-3 cells): 50 nM
- concentration inducing apoptosis (A375 cells): 50 nM
- inhibition of tubulin polymerization (Bovine brain tubulin; 15 min (Example 22)): 90%

Structure (SMILES): COc1cc(C(=O)c2csc(-c3ccc(O)cc3)n2)cc(OC)c1OC [2l, (2-(4-Hydroxyphenyl)thiazol-4-yl)(3,4,5-trimethoxyphenyl)methanone]
- % T/C ([3]; 50 mg/kg i.p.): 34%
- pIC50 [1, 11]: 6.94 to 7.12
- concentration inducing apoptosis (PC-3 cells): greater than or equal to 200 nM
- concentration inducing apoptosis (A375 cells): greater than or equal to 200 nM
- inhibition of tubulin polymerization (Bovine brain tubulin; 15 min (Example 22)): 55%
- Vss relative to that of 1h and 2k (times higher) [4]: 2-3 times

Structure (SMILES): COc1cc(C(=O)c2csc(-c3ccc(CN)cc3)n2)cc(OC)c1OC.Cl [2r, (2-(4-(Aminomethyl)phenyl)thiazol-4-yl)(3,4,5-trimethoxyphenyl)methanone hydrochloride]
- IC50 (PC-3; PC-3, 96 h, read-out: IC50 ± SEM (nM) PC-3, SRB assay, 96 h of treatment): 80 nM
- increase of solubility (fold) over compound 1h [5]: over 35 fold
- pIC50 [1, 11]: 7.10 to 7.89

Structure (SMILES): CNCc1ccc(-c2nc(C(=O)c3cc(OC)c(OC)c(OC)c3)cs2)cc1.Cl [2s, (2-(4-((Methylamino)methyl)phenyl)thiazol-4-yl)(3,4,5-trimethoxyphenyl)methanone hydrochloride]
- IC50 (range over the tested cancer cell lines) ([1]; range given): abrogated activity

Structure (SMILES): COc1cc(C(=O)c2csc(-c3ccc(CN(C)C)cc3)n2)cc(OC)c1OC.Cl [2u, (2-(4-((Dimethylamino)methyl)phenyl)thiazol-4-yl)(3,4,5-trimethoxyphenyl)methanone hydrochloride]
- IC50 (range over the tested cancer cell lines) ([1]; range given): abrogated activity

Structure (SMILES): COc1cc(C(=O)c2csc(Nc3ccccc3)n2)cc(OC)c1OC [5a, (2-(Phenylamino)thiazol-4-yl)(3,4,5-trimethoxyphenyl)methanone]
- inhibition of tubulin polymerization (Bovine brain tubulin; [10]): 78%

Structure (SMILES): Cc1ccc(-c2nc(C(=O)c3ccc(F)cc3)c[nH]2)cc1 [12 db, (4-fluorophenyl)(2-(p-tolyl)-1H-imidazol-4-yl)methanone]
- inhibition of tubulin polymerization (Bovine brain tubulin; 15 min (Example 16)): ~80%

Structure (SMILES): COc1ccc(-c2nc(C(=O)c3ccc(F)cc3)c[nH]2)cc1 [12cb, (4-fluorophenyl)(2-(4-methoxyphenyl)-1H-imidazol-4-yl)methanone]
- effect on microtubule arrangement (WM-164 melanoma cells): microtubule fragmentation
- concentration with effective inhibition of B16-F1 melanoma colony formation (B16-F1 melanoma cells): 20 nM

Structure (SMILES): COc1cc(C(=O)c2c[nH]c(-c3ccc(C)cc3)n2)cc(OC)c1OC [12da, (2-(p-tolyl)-1H-imidazol-4-yl)(3,4,5-trimethoxyphenyl)methanone]
- effect on microtubule arrangement (WM-164 melanoma cells): microtubule fragmentation
- concentration with effective inhibition of B16-F1 melanoma colony formation (B16-F1 melanoma cells): 20 nM
- competition for the tubulin colchicine binding site (in words) [6]: highest binding affinity
- inhibition of tubulin polymerization (Bovine brain tubulin; 15 min (Example 16)): completely inhibited

- Vd (in vivo [7]): 4 L/kg
- clearance (in vivo [7]): 61 mL/min/kg
- Vd (in vivo [8]): 1.9 L/kg
- clearance (in vivo [8]): 16 mL/min/kg
Structure (SMILES): COc1cc(C(=O)c2c[nH]c(-c3ccc(Cl)cc3)n2)cc(OC)c1OC [12fa, (2-(4-chlorophenyl)-1H-imidazol-4-yl)(3,4,5-trimethoxyphenyl)methanone]

Structure (SMILES): CN(C)c1ccc(-c2nc(C(=O)c3ccc(F)cc3)c[nH]2)cc1 [12gb, (2-(4-(dimethylamino)phenyl)-1H-imidazol-4-yl)(4-fluorophenyl)methanone]
- IC50 (PPC-1): 4 nM

Structure (SMILES): O=C(c1ccc(F)cc1)c1c[nH]c(-c2ccc(OCc3ccccc3)cc2)n1 [12jb, (2-(4-(benzyloxy)phenyl)-1H-imidazol-4-yl)(4-fluorophenyl)methanone]
- increase in activity compared with 12 kb (fold) [1]: 440 fold

Structure (SMILES): COc1cc(C(=O)[C@H]2COC(c3ccccc3)=N2)cc(OC)c1OC [35a, (2R)-(2-Phenyl-4,5-dihydro-oxazol-4-yl)-(3,4,5-trimethoxy-phenyl)-methanone]
- IC50 (range over the tested cancer cell lines) ([1]; range given): hundreds of nanomolar range

Structure (SMILES): COc1cc(C(=O)c2coc(-c3ccccc3)n2)cc(OC)c1OC [36a, (2-Phenyl-oxazol-4-yl)-(3,4,5-trimethoxy-phenyl)-methanone]
- IC50 (range over the tested cancer cell lines) ([1]; range given): hundreds of nanomolar range

Structure (SMILES): COc1cc(C(=O)c2csc(-c3ccc4[nH]ccc4c3)n2)cc(OC)c1OC [66a]
- pIC50 [1, 11]: 7.60 to 8.15
- inhibition of tubulin polymerization (Bovine brain tubulin; [10]): 81%

Structure (SMILES): COc1ccc(S(=O)(=O)Nc2cccnc2Nc2ccc(O)cc2)cc1 [ABT-751, reference compound]
- effect on microtubule arrangement (WM-164 melanoma cells): microtubule fragmentation

Structure (SMILES): CN(C)/N=N/c1[nH]cnc1C(N)=O [DTIC, 5-(3,3,-dimethyl-1-triazenyl)-imidazole-4-carboxamide]
- tumor volume reduction (B16-F1 melanoma tumors): 51%

Structure (SMILES): COc1cc(C(=O)c2csc(-c3ccc(F)cc3)n2)cc(OC)c1OC [SMART-F]
- Total log cell kill (A375 melanoma xenografts; Melanoma (A375) xenograft, 15 mg/kg i.p., doubling time 4.6 d): 0.7
- T − C (A375 melanoma xenografts; Melanoma (A375) xenograft, 15 mg/kg i.p.): 11 days

Structure (SMILES): COc1cc(C(=O)c2csc(-c3ccccc3)n2)cc(OC)c1OC [SMART-H]
- T − C (A375 melanoma xenografts; Melanoma (A375) xenograft, 20 mg/kg i.p.): 10 days

Structure (SMILES): COc1cc(C(=NC#N)c2csc(-c3ccccc3)n2)cc(OC)c1O [compound 32, N-((4-hydroxy-3,5-dimethoxyphenyl)(2-phenylthiazol-4-yl)methylene)cyanamide]
- IC50 (PC-3; PC-3, read-out: IC50 (nM) PC-3, Table 6A): 229 nM

Structure (SMILES): CC[C@]1(O)C[C@@H]2CN(CCc3c([nH]c4ccccc34)[C@@](C(=O)OC)(c3cc4c(cc3OC)N(C)[C@H]3[C@@](O)(C(=O)OC)[C@H](OC(C)=O)[C@]5(CC)C=CCN6CC[C@]43[C@@H]65)C2)C1 [vinblastine, reference compound]
- time on the rotating rod compared to the vehicle group (ICR mice): gradually reduced the time
